The results in this text go back to patent US9890185B2, “Urea derivatives useful as kinase inhibitors” (Respivert Limited, priority 2013, dated 2018).

One assay addresses c-Src (Homo sapiens (Human), UniProt P12931). The assay is described as follows: c-Src enzyme inhibition (FRET, Z-LYTE). It counts as biochemical. The method, then: (§1) The enzyme inhibitory activities of compounds disclosed herein are determined by FRET using synthetic peptides labelled with both donor and acceptor fluorophores (Z-LYTE, Invitrogen Ltd., Paisley, UK).
(§2) The inhibitory activities of compounds of the invention against c-Src and Syk enzymes (Invitrogen), are evaluated in a similar fashion to that described hereinabove. The relevant enzyme (3000 ng/mL or 2000 ng/mL respectively, 2.5 μL) is incubated with the test compound (either 4 μg/mL, 0.4 μg/mL, 0.04 μg/mL, or 0.004 μg/mL, 2.5 μL each) for 2 hr at RT. The FRET peptides (8 μM, 2.5 μL), and appropriate ATP solutions (2.5 μL, 800 μM for c-Src, and 60 μM ATP for Syk) are then added to the enzymes/compound mixtures and incubated for 1 hr. Development reagent (protease, 5 μL) is added for 1 hr prior to detection in a fluorescence microplate reader (Varioskan® Flash, ThermoFisher Scientific).
(§3) In all cases, the site-specific protease cleaves non-phosphorylated peptide only and eliminates the FRET signal. Phosphorylation levels of each reaction are calculated using the ratio of coumarin emission (donor) over fluorescein emission (acceptor), for which high ratios indicate high phosphorylation and low ratios indicate low phosphorylation levels. The percentage inhibition of each reaction is calculated relative to non-inhibited control and the 50% inhibitory concentration (IC50 value) is then calculated from the concentration-response curve.

The next assay concerns the target Syk (Homo sapiens (Human), UniProt P43405). Description: Syk enzyme inhibition (FRET, Z-LYTE). The assay is classed as biochemical. The method, then: as §1, §2, §3
In a further assay the target is GSK 3α (Homo sapiens (Human), UniProt P49840). Description: GSK 3α enzyme inhibition (FRET, Z-LYTE, Method 2). It counts as biochemical. To be noted: read-out: IC50 Values for Enzyme Inhibition, GSK3α. Put shortly:
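Phosphorylation of a dual-labelled synthetic peptide by human GSK3α is read as a coumarin/fluorescein ratio after protease development. Compound stocks run 4 to 0.004 μg/mL, and ATP stock is 40 μM.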

In assay [1] the test system is PBMCs. The assay is described as follows: LPS-induced IL-8 release in PBMC cells (assay b). It counts as cell-based, human. To be noted: Homo sapiens, PBMC; LPS-stimulated PBMCs; read-out: IC50 Values for Inhibition of Cytokine Release, PBMCs IL-8. The method in brief:
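Cytokines (TNFα, IL-8) in supernatants were quantified by sandwich ELISA after a 24 h challenge with 1 ng/mL E. coli LPS at 37° C, 5% CO2. Healthy-donor PBMCs had been exposed to compound for 2 h beforehand. IC50 values were fitted from the concentration-response curves.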

The test system of assay [2] is PBMCs. The assay is described as follows: IFN gamma release in CD3/CD28 stimulated PBMC cells (assay c). The note with it: Homo sapiens, read-out: IC50 Values for Inhibition of Cytokine Release, PBMCs IFNγ. It counts as cell-based. How it is done: (§4) PBMCs from healthy subjects are separated from whole blood using a density gradient (Lymphoprep, Axis-Shield Healthcare). Cells are added to a 96 well plate pre-coated with a mixture of CD3/CD28 monoclonal antibodies (0.3 μg/mL eBioscience and 3 μg/mL BD Pharmingen respectively). Compound at the desired concentration is then added to the wells and the plate left for 3 days under normal tissue culture conditions. Supernatants are harvested and IL-2 and IFN gamma release determined by Sandwich ELISA (Duo-set, R&D System). The IC50 is determined from the dose response curve.

Assay [3] has as its system PBMCs. Description: Cell mitosis assay in PBMCs (assay g). It counts as cell-based. To be noted: Homo sapiens, PBMC, test compound 5 μg/mL. The method, then: Peripheral blood mononucleocytes (PBMCs) from healthy subjects are separated from whole blood (Quintiles, London, UK) using a density gradient (Histopaque®-1077, Sigma-Aldrich, Poole, UK). The PBMCs (3 million cells per sample) are subsequently treated with 2% PHA (phytohaemagglutinin, Sigma-Aldrich, Poole, UK) for 48 hr, followed by a 20 hr exposure to varying concentrations of test compounds. At 2 hr before collection, PBMCs are treated with demecolcine (0.1 μg/mL; Invitrogen, Paisley, UK) to arrest cells in metaphase. To observe mitotic cells, PBMCs are permeabilised and fixed by adding Intraprep (50 μL; Beckman Coulter, France), and stained with anti-phospho-histone 3 (0.26 ng/L; #9701; Cell Signalling, Danvers, Mass.) and propidium iodide (1 mg/mL; Sigma-Aldrich, Poole, UK) as previously described (Muehlbauer P. A. and Schuler M. J., Mutation Research, 2003, 537:117-130). Fluorescence is observed using an ATTUNE flow cytometer (Invitrogen, Paisley, UK), gating for lymphocytes. The percentage inhibition of mitosis is calculated for each treatment relative to vehicle (0.5% DMSO) treatment.

Another assay concerns d-U937 cells. Description: Accumulation of β catenin in d-U937 cells (assay m). It counts as cell-based, human. To be noted: percentage relative to Reference Compound at 1 μg/mL. The method, then: U937 cells, a human monocytic cell line, are differentiated into macrophage-type cells by incubation with PMA; (100 ng/mL) for between 48 to 72 hr. The cells are then incubated with either final concentrations of test compound or vehicle for 18 hr. The induction of β-catenin by the test compounds is stopped by replacing the media with 4% formaldehyde solution. Endogenous peroxide activity is neutralised by incubating with quenching buffer (100 μL, 0.1% sodium azide, 1% H2O2 in PBS with 0.05% Tween-20) for 20 min. The cells are washed with washing buffer (200 μL; PBS containing 0.05% Tween-20) and incubated with blocking solution (200 μL; 5% milk in PBS) for 1 hr, re-washed with washing buffer (200 μL) and then incubated overnight with anti-β-catenin antibody solution (50 μL) in 1% BSA/PBS (BD, Oxford, UK).
After washing with washing buffer (3×200 μL; PBS containing 0.05% Tween-20), cells are incubated with an HRP-conjugated secondary antibody solution (100 μL) in 1% BSA/PBS (Dako, Cambridge, UK) and the resultant signal is determined colourimetrically (OD: 450 nm with a reference wavelength of 655 nm) using TMB substrate (50 μL; R&D Systems, Abingdon, UK). This reaction is stopped by addition of 1N H2SO4 solution (50 μL). Cells are then washed with washing buffer and 2% crystal violet solution (50 μL) is applied for 30 min. After washing with washing buffer (3×200 μL), 1% SDS (100 μL) is added to each well and the plates are shaken lightly for 1 hr prior to measuring the absorbance at 595 nm (Varioskan® Flash, Thermo-Fisher Scientific).
The measured OD450-655 readings are corrected for cell number by dividing the OD450-655 by the OD595 readings.

The subject of assay [4] is PBMCs. Description: IL-2 release in CD3/CD28 stimulated PBMC cells (assay c). The assay is classed as cell-based. The note with it: Homo sapiens, read-out: IC50 Values for Inhibition of Cytokine Release, PBMCs IL-2. How it is done:
as §4

The target of assay [5] is p38 MAPKα isoform (MAPK14) (Homo sapiens (Human), UniProt Q16539). Description: p38 MAPKα enzyme inhibition (FRET, Z-LYTE, Method 2). The assay is classed as biochemical. The method, then:
as §1
The following two assay variants can be used for determination of p38 MAPKα inhibition.
The inhibitory activities of test compounds against the p38 MAPKα isoform (MAPK14: Invitrogen), are evaluated indirectly by determining the level of activation/phosphorylation of the down-stream molecule, MAPKAP-K2. The p38 MAPKα protein (80 ng/mL, 2.5 μL) is mixed with the test compound (2.5 μL of either 4 μg/mL, 0.4 μg/mL, 0.04 μg/mL or 0.004 μg/mL) for 2 hr at RT. […] The mixture is incubated for 1 hr at RT. Development reagent (protease, 5 μL) is added for 1 hr prior to detection in a fluorescence microplate reader (Varioskan® Flash, ThermoFisher Scientific).
This method follows the same steps as Method 1 above, but utilises a higher concentration of the p38 MAPKα protein (2.5 μL of 200 ng/mL protein instead of 2.5 μL of 80 ng/mL protein) for mixing with the test compound.
as §3

Sequence of GSK 3α (P49840 whole entry): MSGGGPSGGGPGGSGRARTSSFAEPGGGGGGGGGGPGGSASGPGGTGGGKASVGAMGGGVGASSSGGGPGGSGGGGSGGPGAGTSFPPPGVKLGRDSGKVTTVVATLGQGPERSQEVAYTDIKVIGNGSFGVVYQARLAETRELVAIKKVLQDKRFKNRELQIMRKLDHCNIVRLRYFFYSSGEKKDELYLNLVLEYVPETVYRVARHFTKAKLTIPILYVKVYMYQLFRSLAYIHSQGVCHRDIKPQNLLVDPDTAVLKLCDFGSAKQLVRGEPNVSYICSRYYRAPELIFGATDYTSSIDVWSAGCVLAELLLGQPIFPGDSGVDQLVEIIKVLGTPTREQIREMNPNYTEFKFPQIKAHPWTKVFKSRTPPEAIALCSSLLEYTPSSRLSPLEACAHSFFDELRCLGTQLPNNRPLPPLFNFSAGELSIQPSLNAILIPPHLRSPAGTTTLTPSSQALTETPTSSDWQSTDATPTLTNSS
Sequence of c-Src (P12931 whole entry, looked up): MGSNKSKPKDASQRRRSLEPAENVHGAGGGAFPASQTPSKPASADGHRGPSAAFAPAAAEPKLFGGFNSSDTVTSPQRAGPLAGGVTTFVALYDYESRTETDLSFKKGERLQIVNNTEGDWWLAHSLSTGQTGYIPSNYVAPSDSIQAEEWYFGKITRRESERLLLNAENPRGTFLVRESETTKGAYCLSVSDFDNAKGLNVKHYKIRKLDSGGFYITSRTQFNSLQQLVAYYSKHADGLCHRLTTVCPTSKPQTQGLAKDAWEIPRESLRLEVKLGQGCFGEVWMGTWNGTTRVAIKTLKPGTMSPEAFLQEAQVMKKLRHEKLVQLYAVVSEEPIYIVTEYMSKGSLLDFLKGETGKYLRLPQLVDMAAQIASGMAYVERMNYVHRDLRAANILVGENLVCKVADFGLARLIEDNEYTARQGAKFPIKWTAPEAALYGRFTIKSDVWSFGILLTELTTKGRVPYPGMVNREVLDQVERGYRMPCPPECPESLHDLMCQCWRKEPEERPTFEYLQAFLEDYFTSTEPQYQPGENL
Sequence of p38 MAPKα isoform (MAPK14) (Q16539 whole entry, canonical isoform): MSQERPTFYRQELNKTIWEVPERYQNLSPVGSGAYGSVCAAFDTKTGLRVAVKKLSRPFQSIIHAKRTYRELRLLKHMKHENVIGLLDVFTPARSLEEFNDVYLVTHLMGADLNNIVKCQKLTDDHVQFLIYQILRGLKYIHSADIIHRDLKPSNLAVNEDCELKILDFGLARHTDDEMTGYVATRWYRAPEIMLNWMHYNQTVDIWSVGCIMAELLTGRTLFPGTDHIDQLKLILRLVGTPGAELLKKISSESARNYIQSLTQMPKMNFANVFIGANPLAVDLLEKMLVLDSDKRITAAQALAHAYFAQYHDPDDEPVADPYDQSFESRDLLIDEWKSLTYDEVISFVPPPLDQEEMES

Regarding `COc1c(NC(=O)Nc2ccc(Oc3ccnc(Nc4cnccn4)n3)c3ccccc23)cc(C(C)(C)C)cc1P(C)(C)=O` [15(q), 1-(5-(tert-butyl)-3-(dimethylphosphoryl)-2-methoxyphenyl)-3-(4-((2-(pyrazin-2-ylamino)pyrimidin-4-yl)oxy)naphthalen-1-yl)urea], the IC50 at c-Src was 211 nM; on Syk, more than 1640 nM; at GSK 3α it was 3480 nM; with PBMCs [1] it was 6.2 nM; with PBMCs [2] it was 1640 nM. Also, 5 µg/mL produced 12.9% inhibition in the assay with PBMCs [3]. Moreover, the “% β-catenin induction” value in the assay on d-U937 cells (test compound 1 μg/mL) was found to be 5.0%; in the assay on d-U937 cells (test compound 5 μg/mL) it was 9.5%; in the assay with d-U937 cells (test compound 10 μg/mL) it was 2.5%.
Consider `COc1cc(Nc2cc(Oc3ccc(NC(=O)Nc4cc(C(C)(C)C)cc(CP(C)(C)=O)c4OC)c4ccccc34)ccn2)cc(C(=O)NCCN2CCOCC2)c1` [38(v), 3-((4-((4-(3-(5-(tert-Butyl)-3-((dimethylphosphoryl)methyl)-2-methoxyphenyl)ureido)-naphthalen-1-yl)oxy)pyridin-2-yl)amino)-5-methoxy-N-(2-morpholinoethyl)benzamide], for which the IC50 at GSK 3α was determined as 1150 nM; in the assay on PBMCs [1] it was 1.7 nM; in the assay on PBMCs [4], 84.5 nM; with PBMCs [2], 8.1 nM.
On to `COc1cc(Nc2cc(Oc3ccc(NC(=O)Nc4cc(C(C)(C)C)cc(P(C)(C)=O)c4OC)c4ccccc34)ccn2)cc(OC)c1` [Example 27, 1-(5-(tert-Butyl)-3-(dimethylphosphoryl)-2-methoxyphenyl)-3-(4-((2-((3,5-dimethoxyphenyl)-amino)pyridin-4-yl)oxy)naphthalen-1-yl)urea], for which the IC50 came out at 230 nM in assay [5]; 44 nM on c-Src; 137 nM on Syk; 11300 nM on GSK 3α; 1 nM in the assay on PBMCs [1]. In the assay on PBMCs [3], at 5 µg/mL the inhibition was 52%. Moreover, the “% β-catenin induction” value in the assay with d-U937 cells (test compound 1 μg/mL) is 5.7%; in the assay with d-U937 cells (test compound 5 μg/mL), 13.0%; with d-U937 cells (test compound 10 μg/mL), 13.3%.
With `COCCOCCOCCOc1cc(Nc2cc(Oc3ccc(NC(=O)Nc4cc(C(C)(C)C)cc(CP(C)(C)=O)c4OC)c4ccccc34)ccn2)cc(OC)c1` [Example 29, 1-(5-(tert-Butyl)-3-((dimethylphosphoryl)methyl)-2-methoxyphenyl)-3-(4-((2-((3-methoxy-5-(2-(2-(2-methoxyethoxy)ethoxy)ethoxy)phenyl)amino)pyridin-4-yl)oxy)naphthalen-1-yl)urea], the half-inhibitory concentration (IC50) worked out at 31 nM in assay [5]; 24 nM against c-Src; 123 nM at Syk; 5470 nM on GSK 3α; 0.8 nM in the assay on PBMCs [1]. The compound also registered an inhibition at 5 µg/mL with PBMCs [3] of 49.4%. The “% β-catenin induction” value in the assay on d-U937 cells (test compound 1 μg/mL) is 6.5%; in the assay with d-U937 cells (test compound 5 μg/mL), 9.0%; in the assay with d-U937 cells (test compound 10 μg/mL) it was 45.0%.
Consider `COc1cncc(Nc2cc(Oc3ccc(NC(=O)Nc4cc(C(C)(C)C)cc(P(C)(C)=O)c4OC)c4ccccc34)ccn2)c1` [Example 34, 1-(5-(tert-Butyl)-3-(dimethylphosphoryl)-2-methoxyphenyl)-3-(4-((2-((5-methoxypyridin-3-yl)amino)pyridin-4-yl)oxy)naphthalen-1-yl)urea], for which the IC50 was found to be 56 nM in [5]; 43 nM against c-Src; 228 nM against Syk; 1580 nM at GSK 3α; 1.2 nM in the assay on PBMCs [1]. Besides, the inhibition at 5 µg/mL with PBMCs [3] was 81.1%. Moreover, the entries for the “% β-catenin induction” value with d-U937 cells (test compound 1 μg/mL), in the assay on d-U937 cells (test compound 5 μg/mL) and in the assay with d-U937 cells (test compound 10 μg/mL) were 2.0%, 28.5% and 23.0%, respectively.
As for `COc1c(NC(=O)Nc2ccc(Oc3ccnc(Nc4ccn(C)n4)c3)c3ccccc23)cc(C(C)(C)C)cc1P(C)(C)=O` [Example 36, 1-(5-(tert-Butyl)-3-(dimethylphosphoryl)-2-methoxyphenyl)-3-(4-((2-((1-methyl-1H-pyrazol-3-yl)amino)pyridin-4-yl)oxy)naphthalen-1-yl)urea], the IC50 in [5] was determined as 31 nM; against c-Src, 27 nM; against Syk, 54 nM; at GSK 3α it was 1070 nM; in the assay with PBMCs [1], 1.1 nM. In the assay on PBMCs [3], this compound displayed an inhibition at 5 µg/mL of 86.6%. Further, the figures for the “% β-catenin induction” value in the assay with d-U937 cells (test compound 1 μg/mL), with d-U937 cells (test compound 5 μg/mL) and in the assay with d-U937 cells (test compound 10 μg/mL) were 17.5%, 84.5% and 27.5%, respectively.
As to `COc1cc(Nc2cc(Oc3ccc(NC(=O)Nc4cc(C(C)(C)C)cc(S(C)(=O)=O)c4OC)c4ccccc34)ccn2)ccc1C(=O)O` [Example 80, 4-((4-((4-(3-(5-(tert-Butyl)-2-methoxy-3-(methylsulfonyl)phenyl)ureido)naphthalen-1-yl)oxy)pyridin-2-yl)amino)-2-methoxybenzoic acid], the IC50 in the assay on PBMCs [1] turned out to be 4.5 nM; in the assay on PBMCs [4], 415 nM; in the assay with PBMCs [2], 6.6 nM.
